Values of other authors, collected in patent US20060089285A1, “Stabilized chlorine bleach in alkaline detergent composition and method of making and using the same” (priority 2004, published 2006).

Legend:
[1] = OCl-/HOCl equilibrium, ambient temperature
[2] = in an alkaline liquid detergent; prior art statement

| pKa [1] | shelf stability [2] | SMILES |
| --- | --- | --- |
| 7.5 | – | OCl [HOCl] |
| – | about 3 months | OCl [sodium hypochlorite bleach, Sodium hypochlorite] |
